In US10703723B2 (Truly Translational Sweden AB, priority 2017, dated 2020):
Like-named read-outs stand apart in the source and are kept apart here.

Legend:
[1] = cited from earlier work; for time to steady state levels: sulfasalazine therapy
[2] = appearance of test formulations / solubility over time in PBC buffer (pH 7.4); format: physicochemical; details: 0.5% CMC in phosphate buffer (pH 7.4)
[3] = solubility in de-ionized water at rt after 24 h; details: thermodynamic from solid
Method: The produced examples were characterized regarding identity, crystal modification, thermal properties, melting point, solubility in water, purity, and hygroscopicity using the following methods:
The flow rate was 1.0 mL/min, injection volume 5 μL and detection wavelengths 358 nm (for assay) and 260 nm (for chromatographic purity). Quantitation was performed using external standard methodology. The assay method has been validated with respect to selectivity, repeatability and linearity.

in vivo = details: rat, po, 40 mg/kg
Method: In accordance with Swedish legislations for preclinical in vivo studies in rodents and following evaluation and approval of the experimental procedures the local ethical committee (M388-12), following acclimatization to the housing conditions for a minimum of 7 days after arrival, male Wistar (Hannover) rats (Taconic, Denmark), average weight 300 g; average age 8-10 weeks, were treated with test items (see table 1); 12-16 h prior to dosing all food except for an amount equivalent to a half day consumption was removed. […] The rats were conscious during sample collection and the blood was taken from the sub-lingual vein. Blood samples were collected from each rat over a period of up to 24 h. At each time point two aliquots of 50 μL each was added to a vial containing 150 μL of sterile water. The samples were mixed immediately and stored in −18° C. until preparation for bioanalysis commenced. All formulations were prepared on the same day that dosing took place. The body weight of the rat was recorded before dosing. The weight of the syringe was recorded before and after administration to allow calculation of the actual amount of test sample delivered. Actual dose administered was used during the evaluation of the data.
Samples and standards were injected by a HTC PAL from CTC analytics into an LC system from Shimadzu consisting of a high pressure gradient system of two LC-10 AD pumps controlled by a SCL-10A controller from Shimadzu. The samples were separated using reverse-phase chromatography with gradient elution at a flow rate of 0.8 mL/min. Mobile phases were A:94.9/5/0.1 water/acetonitrile/formic acid and B:5/94.9/0.1 water/acetonitrile/formic acid. Gradient started at 0% B and increased linearly to 100% B in 4 minutes, 100% B was kept for 0.5 minutes and then the system returned to 0% B in 0.1 minutes. The system was equilibrated for 1.4 minutes until the total run time of 6 minutes. The eluent was analyzed by a Quattro Ultima from Micromass equipped with an electrospray ion source. Data was collected and calibrations were calculated by MassLynx 4.0 software. […] The eluent was ionized by negative ion electrospray and the mrm transition from 397 to 197 m/z was monitored.
The diluted blood sample (50 μL blood, 150 μL water) was thawed and mixed. 400 μL of acetonitrile, to precipitate the protein was added and mixed again. The sample was centrifuged at 5000 g for 5 minutes. 100 μL of the supernatant was transferred to a 300 μL glass vial and 100 μL of water was added to reduce the acetonitrile concentration.
The concentration of the standard curve was in the range from 5 nM to 15625 nM. Samples with analyte concentrations above the upper limit of quantification were diluted with matrix to reach within the assay range. A non-compartmental analysis (NCA) was performed using the Phoenix WinNonLin analysis tool.

[4] = ambient temperature; cited from earlier work
[5] = RA, 24 weeks, cited from earlier work

| SMILES | Appearance of test formulations t = 0 h [2] | Appearance of test formulations t = 4 h [2] | solubility at 24 h [3] | Ratio SP to SSZ for AUC0-4 h (h*nmol/L) (in vivo) | Ratio SP to SSZ for Cmax (nmol/L) (in vivo) | also measured |
| --- | --- | --- | --- | --- | --- | --- |
| Nc1ccc(S(=O)(=O)Nc2ccccn2)cc1 [sulfapyridine] | – | – | – | – | – | elimination half-life ([1]; fast acetylators): 5.5 h; total plasma clearance ([1]; fast acetylators): 135.3 mL/min; time after which metabolite can be detected in the plasma ([1]; following oral administration of sulfasalazine): about 10 hours; plasma protein binding ([1]; no difference between fast and slow acetylators): ca. 50 °; elimination half-life ([1]; slow acetylators): 15.3 h; total plasma clearance ([1]; slow acetylators): 36.9 mL/min; time to steady state levels [1]: 72 h |
| CN(C)C(=O)COC(=O)c1cc(/N=N/c2ccc(S(=O)(=O)Nc3ccccn3)cc2)ccc1O [Compound 3a, 2-(dimethylamino)-2-oxoethyl-2-hydroxy-5-((4-(N-(pyridine-2-yl)sulfamoyl)phenyl)diazenyl) benzoate] | clear solution | milky | > 500 µg/mL | – | – | – |
| COCCNC(=O)COC(=O)c1cc(N=Nc2ccc(S(=O)(=O)Nc3ccccn3)cc2)ccc1O [Compound 2h, 2-(2-methoxylethyl)amino)-2-oxoethyl-2-hydroxy-5-((4-(N-(pyridine-2-yl)sulfamoyl)phenyl)diazenyl) benzoate] | clear solution | clear solution | – | 8:1 | 6:1 | – |
| CC(=O)Nc1ccc(S(=O)(=O)Nc2ccccn2)cc1 [acetylated sulfapyridine] | – | – | – | – | – | time to steady state levels [1]: 72 h |
| CC(C)NC(=O)COC(=O)c1cc(N=Nc2ccc(S(=O)(=O)Nc3ccccn3)cc2)ccc1O [Compound 2d, 2-(isopropylamino)-2-oxoethyl-2-hydroxy-5-((4-(N-(pyridine-2-yl)sulfamoyl)phenyl)diazenyl) benzoate] | clear solution | clear solution | – | 2:1 | 2:1 | – |
| O=C(COC(=O)c1cc(N=Nc2ccc(S(=O)(=O)Nc3ccccn3)cc2)ccc1O)NCC1CC1 [Compound 2f, 2-((cyclopropylmethyl)amino)-2-oxoethyl-2-hydroxy-5-((4-(N-(pyridine-2-yl)sulfamoyl)phenyl)diazenyl) benzoate] | clear solution | milky | – | 6:1 | 2:1 | – |
| CCN(CC)C(=O)COC(=O)c1cc(N=Nc2ccc(S(=O)(=O)Nc3ccccn3)cc2)ccc1O [Compound 3b, 2-(diethylamino)-2-oxoethyl-2-hydroxy-5-((4-(N-(pyridine-2-yl)sulfamoyl)phenyl)diazenyl) benzoate] | clear solution | clear solution | – | 8:1 | 5:1 | – |
| O=C(O)c1cc(/N=N/c2ccc(S(=O)(=O)Nc3ccccn3)cc2)ccc1O [Sulfasalazine, 2-hydroxy-5-[2-[4-[(2-pyridinylamino)sulfonyl]phenyl]diazenyl]-benzoic acid] | – | – | – | – | – | water solubility [4]: less than 0.05 mg/mL; time to steady state levels of sulfasalazine ([1]; multiple dosing): ≤ 24 h; Tmax (in vivo; male, Wistar (Hannover)): 0.25 h; Tmax for SP (in vivo; male, Wistar (Hannover)): 4 h; overall clinical status ([5]; fast acetylators, 3 g/day): marked improvement; overall clinical status ([5]; slow acetylators, half of the SSZ dose (1.5 g/d)): remained unchanged |
| O=C(OCC(=O)N1CCOCC1)c1cc(/N=N/c2ccc(S(=O)(=O)Nc3ccccn3)cc2)ccc1O [Compound 1a, 2-morpholino-2-oxoethyl-2-hydroxy-5-((4-(N-(pyridine-2-yl)sulfamoyl)phenyl)diazenyl) benzoate] | clear solution | clear solution | > 5000 µg/mL | – | – | – |
| CNC(=O)COC(=O)c1cc(/N=N/c2ccc(S(=O)(=O)Nc3ccccn3)cc2)ccc1O [Compound 2a, 2-(methylamino)-2-oxoethyl-2-hydroxy-5-((4-(N-(pyridine-2-yl)sulfamoyl)phenyl)diazenyl) benzoate] | clear solution | clear solution | > 5000 µg/mL | – | – | – |
| CCN(C)C(=O)COC(=O)c1cc(/N=N/c2ccc(S(=O)(=O)Nc3ccccn3)cc2)ccc1O [Compound 4a, 2-(ethyl(methyl)amino)-2-oxoethyl-2-hydroxy-5-((4-(N-(pyridine-2-yl)sulfamoyl)phenyl)diazenyl) benzoate] | clear solution | clear solution | > 1000 µg/mL | – | – | – |
